Consider four molecules from ChEMBL document CHEMBL4706694, “Novel bicyclic pyrazoles as potent ALK2 (R206H) inhibitors for the treatment of fibrodysplasia ossificans progressiva” (Bioorg Med Chem Lett, 2021).

The structures appear in SMILES notation.

The target of data set [1] is MDR1 (ABCB1, P-glycoprotein) (Homo sapiens, UniProt P08183). The data set is described as follows: Substrate activity at human MDR1 expressed in MDCK-II cells assessed as apparent permeability across apical to basolateral membrane at 10 uM by LC-MS/MS analysis. The data set is classed as ADME, cell-based.
MDR1 (ABCB1, P-glycoprotein), sequence (P08183 whole entry): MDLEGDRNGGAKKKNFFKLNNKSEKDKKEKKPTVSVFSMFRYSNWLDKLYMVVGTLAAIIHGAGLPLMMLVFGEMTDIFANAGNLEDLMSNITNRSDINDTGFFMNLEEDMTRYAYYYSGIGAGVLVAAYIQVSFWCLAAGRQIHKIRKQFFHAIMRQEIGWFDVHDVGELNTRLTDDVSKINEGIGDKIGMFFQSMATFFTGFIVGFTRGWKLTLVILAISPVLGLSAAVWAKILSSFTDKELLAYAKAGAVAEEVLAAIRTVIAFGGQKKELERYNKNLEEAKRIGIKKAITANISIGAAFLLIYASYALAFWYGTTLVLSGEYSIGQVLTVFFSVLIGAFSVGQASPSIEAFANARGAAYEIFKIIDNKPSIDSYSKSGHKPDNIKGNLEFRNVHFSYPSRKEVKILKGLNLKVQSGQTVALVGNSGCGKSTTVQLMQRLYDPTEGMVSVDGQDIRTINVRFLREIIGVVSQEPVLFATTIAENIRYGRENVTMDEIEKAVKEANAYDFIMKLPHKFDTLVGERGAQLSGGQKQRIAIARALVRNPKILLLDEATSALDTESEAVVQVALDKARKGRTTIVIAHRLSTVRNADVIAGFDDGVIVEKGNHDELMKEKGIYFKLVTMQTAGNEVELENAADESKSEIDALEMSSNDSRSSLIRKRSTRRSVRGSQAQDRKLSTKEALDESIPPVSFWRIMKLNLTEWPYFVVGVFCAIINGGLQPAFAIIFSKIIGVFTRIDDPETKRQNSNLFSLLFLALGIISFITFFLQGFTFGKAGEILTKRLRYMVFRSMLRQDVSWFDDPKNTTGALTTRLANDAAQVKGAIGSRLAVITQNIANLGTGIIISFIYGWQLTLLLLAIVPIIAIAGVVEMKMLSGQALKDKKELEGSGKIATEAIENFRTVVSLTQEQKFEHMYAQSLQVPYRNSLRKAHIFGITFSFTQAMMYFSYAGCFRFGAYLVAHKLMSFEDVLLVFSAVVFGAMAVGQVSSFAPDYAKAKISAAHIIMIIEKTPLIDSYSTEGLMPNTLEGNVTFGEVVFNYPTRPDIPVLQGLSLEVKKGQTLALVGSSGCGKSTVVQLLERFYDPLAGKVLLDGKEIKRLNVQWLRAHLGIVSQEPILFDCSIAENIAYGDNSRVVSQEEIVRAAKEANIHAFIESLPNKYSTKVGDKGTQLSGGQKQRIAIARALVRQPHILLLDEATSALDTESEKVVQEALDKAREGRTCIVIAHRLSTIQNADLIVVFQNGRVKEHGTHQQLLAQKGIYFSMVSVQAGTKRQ
Data set [2] in a line: Metabolic stability in human liver microsomes assessed as parent compound remaining incubated for 60 mins in presence of NADPH by LC-MS/MS analysis. As to conditions: read-out: Stabilty. The data set is classed as ADME, Microsome. On the technique in general: Liver microsomes are vesicles of endoplasmic reticulum, rich in cytochrome P450 enzymes.
Data set [3] in a line: Inhibition of ALK2 R206H in mouse C2C12 cells assessed as reduction in BMP-induced ALP activity using p-nitrophenyl phosphate as substrate.
In another data set the target is hERG (KCNH2) (Homo sapiens, UniProt Q12809). The data set is described as follows: Inhibition of human ERG at 10 uM by automated patch method relative to control.
hERG (KCNH2), sequence (Q12809 whole entry): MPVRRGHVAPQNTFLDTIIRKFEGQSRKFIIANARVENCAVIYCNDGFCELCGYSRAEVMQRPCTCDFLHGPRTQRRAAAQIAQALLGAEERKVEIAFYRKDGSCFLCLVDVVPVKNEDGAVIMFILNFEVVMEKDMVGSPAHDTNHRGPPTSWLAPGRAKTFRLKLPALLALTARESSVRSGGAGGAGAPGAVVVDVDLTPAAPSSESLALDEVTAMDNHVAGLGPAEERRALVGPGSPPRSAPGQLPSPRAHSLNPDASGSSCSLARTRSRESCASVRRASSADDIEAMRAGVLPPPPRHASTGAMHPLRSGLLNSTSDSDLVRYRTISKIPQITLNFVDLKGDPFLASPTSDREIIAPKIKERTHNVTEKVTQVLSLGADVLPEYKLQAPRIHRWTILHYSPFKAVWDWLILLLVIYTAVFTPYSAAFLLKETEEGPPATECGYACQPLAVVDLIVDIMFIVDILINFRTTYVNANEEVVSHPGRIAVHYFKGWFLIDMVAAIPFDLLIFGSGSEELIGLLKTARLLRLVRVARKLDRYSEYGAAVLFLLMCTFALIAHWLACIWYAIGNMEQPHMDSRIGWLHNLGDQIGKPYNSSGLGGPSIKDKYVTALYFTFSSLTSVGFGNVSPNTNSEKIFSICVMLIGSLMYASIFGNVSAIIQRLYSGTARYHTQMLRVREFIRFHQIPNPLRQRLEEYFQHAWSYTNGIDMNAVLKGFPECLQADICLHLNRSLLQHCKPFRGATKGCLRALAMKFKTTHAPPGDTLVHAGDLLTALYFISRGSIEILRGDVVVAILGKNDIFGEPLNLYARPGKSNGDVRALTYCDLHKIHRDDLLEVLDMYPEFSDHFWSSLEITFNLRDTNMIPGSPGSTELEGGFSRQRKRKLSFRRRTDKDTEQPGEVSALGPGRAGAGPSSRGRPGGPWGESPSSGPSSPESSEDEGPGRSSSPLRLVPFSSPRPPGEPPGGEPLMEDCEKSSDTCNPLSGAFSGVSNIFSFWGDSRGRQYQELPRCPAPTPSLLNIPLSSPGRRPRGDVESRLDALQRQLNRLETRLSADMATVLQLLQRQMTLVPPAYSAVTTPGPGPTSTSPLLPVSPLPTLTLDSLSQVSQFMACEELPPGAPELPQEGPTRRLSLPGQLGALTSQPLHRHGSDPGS
Data set [4] can be described thus: Metabolic stability in rat liver microsomes assessed as parent compound remaining incubated for 60 mins in presence of NADPH by LC-MS/MS analysis. Conditions: read-out: Stabilty.

As to `c1cncc(-c2nn3c(c2-c2ccnc(Nc4ccc(N5CCNCC5)cc4)n2)COCC3)c1`, the Papp A→B at 10 µM in data set [1] came out at 0.906 ×10⁻⁶ cm/s.
Regarding `COCCN1CCN(c2ccc(Nc3nccc(-c4c(-c5cccnc5)nn5c4COCC5)n3)cc2)CC1`, the remaining at 1 h is 56% in data set [2] and 40.5% in data set [4]. The Papp A→B at 10 µM in data set [1] stood at 8.69 ×10⁻⁶ cm/s. The IC50 in data set [3] was determined as 37.3 nM. In addition, the inhibition at 10 µM at hERG (KCNH2) was determined as 3.6%.
Take `CN1CCN(c2ccc(Nc3nccc(-c4c(-c5cccnc5)nn5c4COCC5)n3)cc2)CC1`: in data set [1], the apparent permeability from apical to basolateral (Papp A→B) at 10 µM worked out at 4.37 ×10⁻⁶ cm/s.
On to `COc1ccc(Nc2nccc(-c3c[nH]nc3-c3cccnc3)n2)cc1`, for which the remaining at 1 h in data set [2] turned out to be 14.8%; in data set [4], 2.1%. The IC50 in data set [3] was more than 100 nM.

By Papp A→B is commonly meant how fast a substance crosses the layer from the apical side. As usually defined, the IC50 is the point on the concentration scale where inhibition reaches its midpoint. By inhibition is commonly meant how much of the control response was suppressed.
